Assay results published in ChEMBL document CHEMBL1140599, “DAT/SERT selectivity of flexible GBR 12909 analogs modeled using 3D-QSAR methods” (Bioorg Med Chem, 2007).
pKi: −log10 of the molar value.

What was measured:
Rattus norvegicus = species on record: Rattus norvegicus; assay: Selectivity for rat DAT over rat SERT
[1] = biological target: Sodium-dependent dopamine transporter (Rattus norvegicus, UniProt P23977); assay: Displacement of [125I]RTI55 from DAT in rat brain synaptosomes; format: subcellular
[2] = biological target: Sodium-dependent serotonin transporter (Rattus norvegicus, UniProt P31652); assay: Displacement of [125I]RTI55 from SERT in rat brain synaptosomes; format: subcellular
Sodium-dependent serotonin transporter, sequence (P31652 whole entry): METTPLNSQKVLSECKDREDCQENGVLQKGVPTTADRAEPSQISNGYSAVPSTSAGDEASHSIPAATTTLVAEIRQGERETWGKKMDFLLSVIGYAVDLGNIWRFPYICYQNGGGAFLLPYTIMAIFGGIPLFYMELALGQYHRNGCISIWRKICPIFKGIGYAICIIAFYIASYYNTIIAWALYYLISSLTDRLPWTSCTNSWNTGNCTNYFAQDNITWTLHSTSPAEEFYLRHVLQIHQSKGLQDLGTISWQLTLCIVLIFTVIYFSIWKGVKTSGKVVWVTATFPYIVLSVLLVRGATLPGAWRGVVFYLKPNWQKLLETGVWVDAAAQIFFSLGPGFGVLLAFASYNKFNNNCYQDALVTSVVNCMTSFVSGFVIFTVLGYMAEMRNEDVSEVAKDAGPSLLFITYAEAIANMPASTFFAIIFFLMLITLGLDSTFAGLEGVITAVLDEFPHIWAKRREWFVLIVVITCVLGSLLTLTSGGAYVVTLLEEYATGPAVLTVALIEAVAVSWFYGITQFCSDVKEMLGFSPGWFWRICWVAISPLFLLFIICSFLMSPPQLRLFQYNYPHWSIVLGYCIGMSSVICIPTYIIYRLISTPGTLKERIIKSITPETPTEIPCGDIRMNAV

Sodium-dependent dopamine transporter, sequence (P23977 whole entry): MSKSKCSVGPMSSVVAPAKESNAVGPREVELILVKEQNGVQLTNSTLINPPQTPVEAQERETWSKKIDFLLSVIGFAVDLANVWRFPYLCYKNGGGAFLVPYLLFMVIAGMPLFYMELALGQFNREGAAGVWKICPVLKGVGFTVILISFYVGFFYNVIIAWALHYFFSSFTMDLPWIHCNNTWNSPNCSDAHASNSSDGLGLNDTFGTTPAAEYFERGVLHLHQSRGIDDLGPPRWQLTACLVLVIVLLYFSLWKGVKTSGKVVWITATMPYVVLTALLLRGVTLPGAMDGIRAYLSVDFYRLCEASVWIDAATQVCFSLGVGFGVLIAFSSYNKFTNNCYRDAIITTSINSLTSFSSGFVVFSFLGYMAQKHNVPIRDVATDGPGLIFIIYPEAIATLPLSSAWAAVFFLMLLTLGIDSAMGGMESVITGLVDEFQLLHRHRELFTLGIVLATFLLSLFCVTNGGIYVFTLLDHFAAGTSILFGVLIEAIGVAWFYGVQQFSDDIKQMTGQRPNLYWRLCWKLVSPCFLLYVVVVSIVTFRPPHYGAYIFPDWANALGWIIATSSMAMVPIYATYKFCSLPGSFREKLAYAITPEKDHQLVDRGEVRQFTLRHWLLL

Compound	Ratio pKi (Rattus norvegicus)	pKi [1]	pKi [2]
COc1cccc(CN2CCC(CCOC(c3ccc(F)cc3)c3ccc(F)cc3)CC2)c1	1.08	–	–
Fc1ccc(C(OCCN2CCN(Cc3cnc4ccccc4c3)CC2)c2ccc(F)cc2)cc1	1.48	7.79	6.31
Fc1ccc(C(OCCC2CCN(C[C@@H]3C[C@H]3c3ccccc3)CC2)c2ccc(F)cc2)cc1	1.44	9.10	7.66
Fc1ccc(C(OCCC2CCN(Cc3ccc(C(F)(F)F)cc3)CC2)c2ccc(F)cc2)cc1	2.6	–	–
Fc1ccc(C(OCCC2CCN(Cc3cc4ccccc4s3)CC2)c2ccc(F)cc2)cc1	2.18	8.79	6.61
Fc1ccc(C(OCCC2CCN(Cc3ccc(Br)cc3)CC2)c2ccc(F)cc2)cc1	2.26	–	–
Fc1ccc(C(OCCC2CCN(Cc3ccc4ccccc4c3)CC2)c2ccc(F)cc2)cc1	2.51	9.15	–
CCCN1CCN(CCOC(c2ccc(F)cc2)c2ccc(F)cc2)CC1	1.35	–	–
Fc1ccc(CN2CCC(CCOC(c3ccc(F)cc3)c3ccc(F)cc3)CC2)cc1	2.03	–	–
Fc1ccc(C(OCCC2CCN(Cc3ccc(Cl)cc3)CC2)c2ccc(F)cc2)cc1	2.3	–	–
O[C@H]1c2ccccc2CC[C@H]1CN1CCN(CCOC(c2ccc(F)cc2)c2ccc(F)cc2)CC1	1.36	–	–
Fc1ccc(C(OCCC2CCN(Cc3cc4ccccc4[nH]3)CC2)c2ccc(F)cc2)cc1	2.08	9.14	7.06
Fc1ccc(C(OCCC2CCN(Cc3ccc(I)cc3)CC2)c2ccc(F)cc2)cc1	1.99	–	–
Fc1ccc(C(OCCC2CCN(Cc3ccccc3)CC2)c2ccc(F)cc2)cc1	1.24	–	–
Fc1ccc(C(OCCN2CCN(Cc3cc4ccccc4[nH]3)CC2)c2ccc(F)cc2)cc1	2.23	9.15	6.92
Fc1ccc(C(OCCN2CCN(Cc3cc4ccccc4s3)CC2)c2ccc(F)cc2)cc1	2.08	8.39	6.31
O=C1CCCCC1CN1CCN(CCOC(c2ccc(F)cc2)c2ccc(F)cc2)CC1 (racemic)	1.29	7.06	5.77
O=C1CCCCCC1CN1CCN(CCOC(c2ccc(F)cc2)c2ccc(F)cc2)CC1 (racemic)	1.03	–	–
COc1ccc2c(c1)CCC(CN1CCN(CCOC(c3ccc(F)cc3)c3ccc(F)cc3)CC1)=C2	0.03	7.28	–
Fc1ccc(C(OCCN2CCN(CCCCl)CC2)c2ccc(F)cc2)cc1	0.91	7.38	6.47
O=C1c2ccccc2CCC1CN1CCN(CCOC(c2ccc(F)cc2)c2ccc(F)cc2)CC1 (racemic)	0.29	–	–
Fc1ccc(C(OCCN2CCN(CC3=Cc4ccccc4CC3)CC2)c2ccc(F)cc2)cc1	1.61	–	–
N#Cc1ccc(CN2CCC(CCOC(c3ccc(F)cc3)c3ccc(F)cc3)CC2)cc1	2.7	–	–

Compound	Ratio pKi (Rattus norvegicus)	pKi [1]	pKi [2]
Fc1ccc(C(OCCN2CCN(CC#Cc3ccccc3)CC2)c2ccc(F)cc2)cc1	1.12	7.70	6.58
COc1ccccc1CN1CCC(CCOC(c2ccc(F)cc2)c2ccc(F)cc2)CC1	0.6	–	–
O=[N+]([O-])c1ccc(CN2CCC(CCOC(c3ccc(F)cc3)c3ccc(F)cc3)CC2)cc1	2.51	–	–
C=CCN1CCN(CCOC(c2ccc(F)cc2)c2ccc(F)cc2)CC1	1.41	–	–
Fc1ccc(C(OCCC2CCN(CC#Cc3ccccc3)CC2)c2ccc(F)cc2)cc1	1.49	8.28	6.79
Fc1ccc(C(OCCN2CCN(Cc3ccc4ncccc4c3)CC2)c2ccc(F)cc2)cc1	0.95	7.21	6.26
Fc1ccc(C(OCCN2CCN(Cc3cccc4ccccc34)CC2)c2ccc(F)cc2)cc1	0.89	7.51	6.61
Fc1ccc(C(OCCN2CCN(CC34CC5CC(CC(C5)C3)C4)CC2)c2ccc(F)cc2)cc1	0.78	7.00	6.22
COc1ccc2c(c1)CC[C@@H](CN1CCN(CCOC(c3ccc(F)cc3)c3ccc(F)cc3)CC1)[C@H]2O	-0.67	7.85	–
Fc1ccc(C(OCCC2CCN(Cc3cc4ccccc4o3)CC2)c2ccc(F)cc2)cc1	1.93	9.00	7.07
COc1ccc(CN2CCC(CCOC(c3ccc(F)cc3)c3ccc(F)cc3)CC2)cc1	1.53	–	–
Fc1ccc(C(OCCN2CCN(Cc3cc4ccccc4o3)CC2)c2ccc(F)cc2)cc1	1.65	8.19	6.54
COc1ccc2c(c1)CCC(CN1CCN(CCOC(c3ccc(F)cc3)c3ccc(F)cc3)CC1)C2=O (racemic)	-0.87	–	–
Fc1ccc(C(OCCN2CCN(Cc3ccc4ccccc4c3)CC2)c2ccc(F)cc2)cc1	1.59	8.10	6.51
Fc1ccc(C(OCCN2CCN(Cc3ccc4ccccc4n3)CC2)c2ccc(F)cc2)cc1	-0.04	7.25	7.29
Fc1ccc(C(OCCC2CCN(C[C@H]3C[C@@H]3c3ccccc3)CC2)c2ccc(F)cc2)cc1	2.02	8.89	6.87
Cc1ccc(CN2CCC(CCOC(c3ccc(F)cc3)c3ccc(F)cc3)CC2)cc1	1.62	–	–
O=C1CCCC1CN1CCN(CCOC(c2ccc(F)cc2)c2ccc(F)cc2)CC1 (racemic)	1.06	–	–
Fc1ccc(C(OCCC2CCN(C[C@H]3Cc4ccccc4CN3)CC2)c2ccc(F)cc2)cc1	0.21	8.03	7.82
Fc1ccc(C(OCCC2CCN(Cc3cccc4ccccc34)CC2)c2ccc(F)cc2)cc1	1.36	–	–
O[C@H]1c2ccccc2CC[C@@H]1CN1CCN(CCOC(c2ccc(F)cc2)c2ccc(F)cc2)CC1	0.25	7.74	7.49
Fc1ccc(C(OCCC2CCN(C[C@@H]3Cc4ccccc4CN3)CC2)c2ccc(F)cc2)cc1	1	8.32	7.32
CCN1CCN(CCOC(c2ccc(F)cc2)c2ccc(F)cc2)CC1	1.79	–	–
